# Experiments:
# tau fibrils = tau fibrils (Homo sapiens, UniProt P10636); experiment: Competition binding assay against [^3H]PiB, tau fibrils
# Experimental: Recombinant tau monomer (R&D systems, Minneapolis, MN, USA) was dissolved in 20 mM of Tris HCl, pH 8.0, 100 mM of NaCl, 25 μM of low-MW heparin, and 0.5 mM of dithiothreitol to a final concentration of 300 µg/mL. The mixture was incubated with shaking at 900 rpm at 37 °C for 48 h. To separate the non-aggregated monomers from the formed fibrils, the reaction mixture was centrifuged at 12,000× g for 5 min, and the resulting pellet was washed three times with 500 μL of 20 mM Tris-HCl, pH 7.4. The supernatants from the three centrifugation steps were combined, and the concentration of the monomer in the resulting supernatant was determined in a BCA assay(Thermo Fisher Scientific, Waltham, MA, USA) (with a BSA standard curve). Determination of the concentration of fibrils formed was carried out by subtracting the amount of tau peptide monomer in the supernatant from the initial amount used for fibrillation. The pellets of the fibrils obtained above (Section 4.2.1) were resuspended in 20 mM of Tris-HCl, pH 7.4 and diluted as needed for the binding assays. A fixed concentration of [^3H]DCVJ (10 nM) and α-synuclein aggregates (125 nM), prepared as described above (Section 4.2.3), was used with different final concentrations of the DABTAs from 0.01 to 100 nM (see SI Figure S1). The experiment was carried out in quintuplicate for each concentration. The mixture was incubated for 2 h in a final volume of 200 μL per well after dilution with 20 mM of Tris-HCl, pH 7.4. The incubated mixtures were filtered through a Perkin Elmer GF/B glass filter via a TOMTEC cell harvester and immediately washed thrice with 1 mL of deionized water. The filters containing the bound ligands were dried and afterwards mixed with 3 mL of BetaPlate Scint solution (Perkin Elmer Life Sciences, Waltham, MA, USA) and left there for 2 h before counting in a Wallac 1450 MicroBeta TriLux Liquid Scintillation Counter (PerkinElmer Life Sciences, Waltham, MA, USA). For the determination of the inhibition constants, data were analyzed using GraphPad Prism software (version 7.0) to obtain IC50 values by fitting the data to the equation Y = bottom + (top − bottom)/(1 + 10(x − log IC50)). Ki values were calculated from IC50 values using the equation Ki = IC50/(1 + [radioligand]/Kd). […] Further protocol was carried out as for [^3H]DCVJ (see SI Figure S3). […] Further procedures followed the same already described in Section 4.2.3.1 (See SI Figure S4).
# [1] = target: T1, recombinant α-syn fibrils (Homo sapiens, UniProt P37840); experiment: Competition binding assay against [^3H]PiB, α-syn fibrils; details: for Selectivity Aβ/α-syn / Selectivity tau/α-syn: ratio of Ki, [^3H]PiB was used
# T1 construct: made in house
# Aβ1−42 fibrils = target: T2, Aβ1−42 fibrils (Homo sapiens, UniProt P05067); experiment: Competition binding assay against [^3H]PiB, Aβ1−42 fibrils; details: read-out: Ki Aβ
# T2 construct: 1 mg of β-amyloid1–42 peptide (Abcam, Cambridge, UK); purchased Abcam
# Experimental: After the dissolution of 1 mg of β-amyloid1–42 peptide (Abcam, Cambridge, UK) in 50 μL of DMSO, 925 μL of Milli-Q® water was added to it, and the mixture was stirred. Finally, 25 μL of 1M Tris HCl, pH 7.4 was added to bring the final peptide concentration to 1 mg/mL. The mixture was then left to incubate at 37 °C for 30 h with shaking at 900 rpm. To separate the non-aggregated monomers from the formed fibrils, the reaction mixture was centrifuged at 12,000× g for 5 min, and the resulting pellet was washed three times with 500 μL of 20 mM Tris-HCl, pH 7.4. The supernatants from the three centrifugation steps were combined, and the concentration of the monomer in the resulting supernatant was determined in a BCA assay (Thermo Fisher Scientific, Waltham, MA, USA) (with a BSA standard curve). Determination of the concentration of fibrils formed was carried out by subtracting the amount of β-amyloid1−42 peptide monomer in the supernatant from the initial amount used for fibrillation.
# (§1) The pellets of the fibrils obtained above (Section 4.2.1) were resuspended in 20 mM of Tris-HCl, pH 7.4 and diluted as needed for the binding assays.
# (§2) A fixed concentration of [^3H]DCVJ (10 nM) and α-synuclein aggregates (125 nM), prepared as described above (Section 4.2.3), was used with different final concentrations of the DABTAs from 0.01 to 100 nM (see SI Figure S1). The experiment was carried out in quintuplicate for each concentration. The mixture was incubated for 2 h in a final volume of 200 μL per well after dilution with 20 mM of Tris-HCl, pH 7.4. The incubated mixtures were filtered through a Perkin Elmer GF/B glass filter via a TOMTEC cell harvester and immediately washed thrice with 1 mL of deionized water. The filters containing the bound ligands were dried and afterwards mixed with 3 mL of BetaPlate Scint solution (Perkin Elmer Life Sciences, Waltham, MA, USA) and left there for 2 h before counting in a Wallac 1450 MicroBeta TriLux Liquid Scintillation Counter (PerkinElmer Life Sciences, Waltham, MA, USA). For the determination of the inhibition constants, data were analyzed using GraphPad Prism software (version 7.0) to obtain IC50 values by fitting the data to the equation Y = bottom + (top − bottom)/(1 + 10(x − log IC50)). Ki values were calculated from IC50 values using the equation Ki = IC50/(1 + [radioligand]/Kd). […] Further protocol was carried out as for [^3H]DCVJ (see SI Figure S3).
# Further procedures followed the same already described in Section 4.2.3.1 (See SI Figure S4).
# [2] = target: T1, recombinant α-syn fibrils; experiment: Competition binding assay against [^3H]DCVJ, α-syn fibrils; details: ratio of Ki, [^3H]DCVJ was used
# Experimental: The incubation of purified recombinant α-synuclein monomer (10 mg/mL) obtained as described by Uzuegbunam was carried out in PBS (pH 7.4) at 37 °C. The solution was left shaking at 900 rpm in an Eppendorf Thermomixer for up to 84 h. Determination of the concentration of the formed fibrils (α-syn) was carried out following the centrifugation of the reaction vial at 12,000× g for 5 min. The pellet obtained was washed thrice with 20 mM of Tris-HCl, pH 7.4. The supernatants from the three centrifugation steps were combined, and the concentration of the monomer in the resulting supernatant was determined in a BCA assay (Thermo Fisher Scientific, Waltham, MA, USA) (with a BSA standard curve). Determination of the concentration of α-syn was carried out by subtracting the amount of α-synuclein monomer in the supernatant from the initial amount used for fibrillation.
# as §1, §2
# T2 sequence (P05067 672-713): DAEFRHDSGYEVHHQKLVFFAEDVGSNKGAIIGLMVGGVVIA
# tau fibrils, sequence (P10636 2-758): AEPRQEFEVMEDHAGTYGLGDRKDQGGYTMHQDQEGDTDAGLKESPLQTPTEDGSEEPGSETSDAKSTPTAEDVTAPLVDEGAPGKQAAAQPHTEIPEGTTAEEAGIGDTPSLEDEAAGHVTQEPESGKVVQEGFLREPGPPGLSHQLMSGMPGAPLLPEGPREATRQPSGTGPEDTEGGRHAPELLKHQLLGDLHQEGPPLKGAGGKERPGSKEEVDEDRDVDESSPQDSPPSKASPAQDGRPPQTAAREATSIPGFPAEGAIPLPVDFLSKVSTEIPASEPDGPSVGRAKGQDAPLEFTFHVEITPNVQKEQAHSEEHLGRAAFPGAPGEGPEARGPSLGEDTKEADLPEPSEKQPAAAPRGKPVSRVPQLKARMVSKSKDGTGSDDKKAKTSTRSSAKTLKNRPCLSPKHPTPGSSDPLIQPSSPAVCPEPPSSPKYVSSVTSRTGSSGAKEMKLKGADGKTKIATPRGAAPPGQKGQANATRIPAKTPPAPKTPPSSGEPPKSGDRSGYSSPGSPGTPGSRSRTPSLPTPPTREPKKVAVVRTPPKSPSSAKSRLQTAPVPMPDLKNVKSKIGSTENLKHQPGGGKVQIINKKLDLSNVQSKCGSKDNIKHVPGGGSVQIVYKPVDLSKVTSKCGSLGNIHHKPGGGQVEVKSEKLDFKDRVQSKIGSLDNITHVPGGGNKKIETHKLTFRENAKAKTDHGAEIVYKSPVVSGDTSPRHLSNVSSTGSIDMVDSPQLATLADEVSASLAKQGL
SMILES,Ki (tau fibrils) [nM],Ki [1] [nM],Selectivity Aβ/α-syn [1],Selectivity tau/α-syn [1],Ki (Aβ1−42 fibrils) [nM],Selectivity Aβ/α-syn [2],Selectivity tau/α-syn [2]
"COc1ccc(-c2csc(-c3nc(-c4ccc5c(c4)OCO5)cs3)n2)cc1F [d2, 4-(Benzo[d][1,3]dioxol-5-yl)-4′-(3-fluoro-4-methoxyphenyl)-2,2′-bithiazole]",681,2.32,63.4,293.4,147,198.1,>819.7
"COc1ccc(-c2csc(-c3nc(-c4cnc5c(c4)OCO5)cs3)n2)cc1F [d4, 6-(4′-(3-Fluoro-4-methoxyphenyl)-[2,2′-bithiazol]-4-yl)-[1,3]dioxolo[4,5-b]pyridine]",364,2.56,34.1,142.2,87.4,417.1,>1515.2
"FCCOc1ccc(-c2csc(-c3nc(-c4ccc5c(c4)OCO5)cs3)n2)cc1 [f11, 4-(Benzo[d][1,3]dioxol-5-yl)-4′-(4-(2-fluoroethoxy)phenyl)-2,2′-bithiazole]",499,3.71,26.9,–,99.6,–,–
"FCCOCCOCCOc1ccc(-c2csc(-c3nc(-c4cnc5c(c4)OCO5)cs3)n2)cc1 [f12, 6-(4′-(4-(2-(2-(2-Fluoroethoxy)ethoxy)ethoxy)phenyl)-[2,2′-bithiazol]-4-yl)-[1,3]dioxolo[4,5-b]pyridine]",983,0.92,42.1,1068.5,38.7,–,–
"FCCOCCOCCOc1cnc(-c2csc(-c3nc(-c4cnc5c(c4)OCO5)cs3)n2)nc1 [f13, 6-(4′-(5-(2-(2-(2-Fluoroethoxy)ethoxy)ethoxy)pyrimidin-2-yl)-[2,2′-bithiazol]-4-yl)-[1,3]dioxolo[4,5-b]pyridine]",120,0.38,122.6,315.8,46.6,–,–
"COc1ccc(-c2csc(-c3nc(-c4ccc5c(c4)OCO5)cs3)n2)cc1OCCOCCOCCF [f14, 4-(Benzo[d][1,3]dioxol-5-yl)-4′-(3-(2-(2-(2-fluoroethoxy)ethoxy)ethoxy)-4-methoxyphenyl)-2,2′-bithiazole]",662,1.74,120.8,380.6,210,–,–
"COc1cnc(-c2csc(-c3nc(-c4ccc5c(c4)OCO5)cs3)n2)nc1 [f15, 4-(Benzo[d][1,3]dioxol-5-yl)-4′-(5-methoxypyrimidin-2-yl)-2,2′-bithiazole]",707,2.45,24.2,288.6,59.3,–,–
"COc1ccc(-c2csc(-c3nc(-c4cnc5c(c4)OCO5)cs3)n2)cc1 [f17, 6-(4′-(4-Methoxyphenyl)-[2,2′-bithiazol]-4-yl)-[1,3]dioxolo[4,5-b]pyridine]",513,1.78,94.1,288.0,167,–,–
"COc1ccc(-c2csc(-c3nc(-c4cnc5c(c4)OCO5)cs3)n2)c(OC)c1 [f19, 6-(4′-(2,4-Dimethoxyphenyl)-[2,2′-bithiazol]-4-yl)-[1,3]dioxolo[4,5-b]pyridine]",671,1.35,110.1,497.3,149,–,–
"FCCOCCOc1ccc(-c2csc(-c3nc(-c4cnc5c(c4)OCO5)cs3)n2)c(OCCOCCF)c1 [f20, 6-(4′-(2,4-Bis(2-(2-fluoroethoxy)ethoxy)phenyl)-[2,2′-bithiazol]-4-yl)-[1,3]dioxolo[4,5-b]pyridine]",815,1.31,168.9,621.8,221,–,–

# Source: article PMC10671360, “In Silico and In Vitro Study towards the Rational Design of 4,4′-Disarylbisthiazoles as a Selective α-Synucleinopathy Biomarker” (International Journal of Molecular Sciences, 2023)
